For data set [1], the system named is SSAO activity in rat plasma and liver tissues. The data set is described as follows: SSAO Target Engagement (residual SSAO activity in rat plasma and liver after dosing). The data set is classed as in vivo. Particulars: doses 0.005-15 mg/kg. As for the experimental part: The SSAO activity in rat plasma and liver tissues are measured using the MAO-Glo™ assay kit from Promega (V1402). The residual SSAO activity in rats after compound treatment is estimated by measuring the total amine oxidase activity in plasma or liver lysates that are insensitive to the presence of the MAO inhibitor Clogyline and Pargyline. Rats are administered the compound of Example 2 at the doses of 15, 3, 0.6, 0.12, 0.025, 0.005 mg/kg. The control group is administered with the same volume (2 ml/kg) of the dosing vehicle (hydroxyethyl cellulose 1% w/v, 0.25% Tween 80). Plasma and liver at 2 or 24 hours post compound treatment are harvested and stored at −78° C. until analysis. Tissue lysates are prepared by homogenization in a lysis buffer (20 mM HEPES, pH 7.4, 150 mM NaCl, 1 mM EDTA, 1 mM EGTA, 1% Triton X-100 and 1× Roche Complete protease inhibitor tablet). Tissue particles are removed by centrifugation at 12,000 rpm at 4° C. for 30 minutes. 40 μl of plasma or liver lysates is incubated with Clogyline (10 μM) and Pargyline (10 μM) for 20 minutes at room temperature before the addition of the luminogenic substrate (50 μM) for 60 minutes. The product generated is quantified according to the manufacture's procedure. […] The compound of Example 2 was evaluated in the protocol essentially as described above administered at various doses.

Data set [2] in a line: Plasma compound level in 3H diet mice by mass spectroscopy. The data set is classed as in vivo, Male C57BL/6N mice. The note with it: treated mice, all doses. As to the method: Male C57BL/6N mice are fed with D09100301 diet (Research Diets, 40% fat, 2% cholesterol, 24% fructose, (the, high fat, high cholesterol and high fructose, the “3H diet”) for 150 days. Each mouse is then singly housed after 5 days for an acclimation period. Plasma alanine aminotransferase (ALT) and cytokeratin 18 (CK18) are measured. After one week of recovery, the mice are randomized into 5 groups based on their ALT values, CK18 values, and body weight. Animals of each group are administrated either vehicle (0.5% methylcellulose (MC)+0.25% Tween 80 in distilled water) or the compound of Example 6 (at a 0.06, 2, 6, and 20 mg/kg dose) once daily in a volume of 5 ml/kg for 11 weeks. Blood is collected from mice treated with the compound of Example 6 for 76 days 2 hours after the last dose. Compound levels in the plasma are analyzed by mass spectroscopy.

The test system of data set [3] is NASH and fibrosis induced by 3H diet. The data set is described as follows: Mouse Model of NASH and Fibrosis Induced by 3H Diet. The data set is classed as in vivo, Male C57BL/6N mice. The note with it: for Perisinusoidal fibrosis Left, Score (0-3) / Hepatic inflammation Left, Score (0-3) / Macrovesicular vaculation Left, Score (0-3): left lobe; for Perisinusoidal fibrosis Left, Score (0-3): vehicle 2.5 ± 0.2; for Hepatic inflammation Left, Score (0-3) / Macrovesicular vaculation Left, Score (0-3) / Macrovesicular vaculation Right, Score (0-3): vehicle 2.8 ± 0.1; for Perisinusoidal fibrosis Right, Score (0-3) / Hepatic inflammation Right, Score (0-3) / Macrovesicular vaculation Right, Score (0-3): right lobe; for Perisinusoidal fibrosis Right, Score (0-3): vehicle 2.3 ± 0.1; for Hepatic inflammation Right, Score (0-3): vehicle 2.7 ± 0.1. As to the method:
Male C57BL/6N mice are fed with D09100301 diet (Research Diets, 40% fat, 2% cholesterol, 24% fructose, (the, high fat, high cholesterol and high fructose, the “3H diet”) for 150 days. Each mouse is then singly housed after 5 days for an acclimation period. Plasma alanine aminotransferase (ALT) and cytokeratin 18 (CK18) are measured. After one week of recovery, the mice are randomized into 5 groups based on their ALT values, CK18 values, and body weight. […] Blood is collected from mice treated with the compound of Example 6 for 76 days 2 hours after the last dose. Compound levels in the plasma are analyzed by mass spectroscopy. […] At the completion of the study, the animals are sacrificed and their livers excised. Two sections of the left and right lobes are fixed in neutral buffered 10% formalin. Liver tissue slides are stained with hematoxylin and eosin (H&E), Sirius red, and Masson's Trichrome to prepare slides for pathological analysis. All specimens are examined microscopically and scored as a modified Brunt score NASH Activity Score. Scores are based on the grading scheme and end-points as described in Brunt E. M, et al., “Histopathology of nonalcoholic fatty liver disease,” World J. of Gastroenterol, 2010, 16(42), 5286-5296. Group means are then calculated for each individual end-point. The following endpoints are used to characterize the fast food model of NASH in mice as modified from NASH endpoints (See Brunt, E. M. “Histopathology of nonalcoholic fatty liver disease,” Clin Liver Dis., 2009, 13, 533-544 and Brunt, E. M, et al., “Nonalcoholic steatohepatitis: A proposal for grading and staging the histological lesions”, Am J Gastroenterology, 1999, 94(9), 2467-2474.

For the molecule `Cl.Cl.NC/C(=C\F)COc1cnc(N2CCC(O)CC2)nc1` [Example 2, 1-[5-[(E)-2-(Aminomethyl)-3-fluoro-allyloxy]pyrimidin-2-yl]piperidin-4-ol dihydrochloride], the “SSAO activity in rat plasma and liver (result in words)” value in data set [1] is given as “dose-dependently inhibits SSAO activity”.

With `Cl.Cl.NC/C(=C\F)COc1cnc(N2CC[C@H](O)C2)nc1` [Example 6, (3S)-1-[5-[(E)-2-(Aminomethyl)-3-fluoro-allyloxy]pyrimidin-2-yl]pyrrolidin-3-ol; Dihydrochloride], the “plasma compound levels (result in words)” value in data set [2] was “dose-dependent increase”. For the same molecule, in data set [3] (0.6 mg/kg once daily 11 weeks), the “Perisinusoidal fibrosis Left, Score (0-3)” value (“Perisinusoidal fibrosis Left” below) was 2.4 ± 0.2; the “Hepatic inflammation Left, Score (0-3)” value was determined as 2.6 ± 0.1; the “Macrovesicular vaculation Left, Score (0-3)” value (“Macrovesicular vaculation Left” below) was 2.5 ± 0.1; the “Perisinusoidal fibrosis Right, Score (0-3)” value (from here on “Perisinusoidal fibrosis Right”) is reported as 1.9 ± 0.2. Further, in data set [3] (0.6 mg/kg once daily 11 weeks), the “Hepatic inflammation Right, Score (0-3)” value came to 2.5 ± 0.1 and the “Macrovesicular vaculation Right, Score (0-3)” value was 2.6 ± 0.1. Moreover, in data set [3] (2 mg/kg once daily 11 weeks), the “Perisinusoidal fibrosis Left” value came out at 2.5 ± 0.2; the “Hepatic inflammation Left, Score (0-3)” value came to 2.5 ± 0.1; the “Macrovesicular vaculation Left” value is 2.5 ± 0.1; the “Perisinusoidal fibrosis Right” value worked out at 1.8 ± 0.2. Also, in data set [3] (2 mg/kg once daily 11 weeks), the “Hepatic inflammation Right, Score (0-3)” value is recorded as 2.6 ± 0.1 and the “Macrovesicular vaculation Right, Score (0-3)” value was determined as 2.7 ± 0.1. Besides, in data set [3] (6 mg/kg once daily 11 weeks), the “Perisinusoidal fibrosis Left” value was found to be 2.6 ± 0.2; the “Hepatic inflammation Left, Score (0-3)” value is reported as 2.5 ± 0.2; the “Macrovesicular vaculation Left” value is 2.9 ± 0.1; the “Perisinusoidal fibrosis Right” value amounted to 2.1 ± 0.3. Also, in data set [3] (6 mg/kg once daily 11 weeks), the “Hepatic inflammation Right, Score (0-3)” value stood at 2.6 ± 0.2 and the “Macrovesicular vaculation Right, Score (0-3)” value stood at 2.7 ± 0.1. Besides, in data set [3] (20 mg/kg), the “hepatic inflammation (result in words)” value is “significant decrease”, the “macrovesicular vaculation (result in words)” value is listed as “significant decrease” and the “perisinusoidal fibrosis (result in words)” value was “significant decrease”. Besides, in data set [3] (20 mg/kg once daily 11 weeks), the “Perisinusoidal fibrosis Left” value is 1.9 ± 0.2; the “Hepatic inflammation Left, Score (0-3)” value worked out at 2.1 ± 0.1; the “Macrovesicular vaculation Left” value amounted to 2.4 ± 0.2; the “Perisinusoidal fibrosis Right” value was 1.5 ± 0.2. In data set [3] (20 mg/kg once daily 11 weeks), the “Hepatic inflammation Right, Score (0-3)” value amounted to 2.1 ± 0.1 and the “Macrovesicular vaculation Right, Score (0-3)” value amounted to 2.3 ± 0.1. The “triglyceride levels in blood (result in words)” value in data set [3] (6 and 20 mg/kg) was “decreased”. Further, the “ALT (result in words)” value in data set [3] (all groups of treated mice vs vehicle) is reported as “significant decrease”.

The values above are taken from patent US10464928B2, “Amino pyrimidine SSAO inhibitors” (Eli Lilly and Company, priority 2016, dated 2019).
